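Test compounds were applied to cells in 96-well plates for 48 hours at 5 doses. At the GI50, growth is halved. The concentration for full growth arrest is given as TGI.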
Assays:
Test in all cases: DTP human tumour cell line panel, 48 h
[1] = tested on: NCI-H522 lung
[2] = tested on: SW-620 colon
[3] = tested on: DU-145 prostate
[4] = tested on: HL-60(TB) leukemia
[5] = tested on: SR leukemia
[6] = tested on: CAKI-1 renal
[7] = tested on: COLO 205 colon
[8] = tested on: RXF 393 renal
[9] = tested on: HOP-92 NSCLC
[10] = tested on: KM12 colon

Row | SMILES | GI50 [1] [µM] | TGI [1] [µM] | GI50 [2] [µM] | TGI [2] [µM] | GI50 [3] [µM] | TGI [3] [µM] | GI50 [4] [µM] | TGI [4] [µM] | GI50 [5] [µM] | TGI [5] [µM] | GI50 [6] [µM] | TGI [6] [µM] | GI50 [7] [µM] | TGI [7] [µM] | GI50 [8] [µM] | TGI [8] [µM] | GI50 [9] [µM] | TGI [9] [µM] | GI50 [10] [µM] | TGI [10] [µM]
1 | COc1ccccc1-n1c(SCc2cc(OC)c(OC)c(OC)c2)nc2ccc(Cl)cc2c1=O | 2.61 | > 100 | 2.59 | > 100 | 9.12 | > 100 | 2.99 | 18.7 | 0.538 | > 100 | 2.8 | > 100 | 3.03 | > 100 | 3.78 | > 100 | 2.78 | 99.6 | 1.46 | > 100
2 | CN(Cc1cnc2nc(N)nc(N)c2n1)c1ccc(C(=O)NC(CCC(=O)O)C(=O)O)cc1 (centres undefined) | 0.721 | > 100 | 0.0456 | > 100 | 0.204 | > 100 | 0.0742 | > 100 | 0.05 | > 100 | 0.0544 | > 100 |  | > 100 |  | > 100 |  | > 100 | 0.0875 | > 100
3 | O=c1[nH]c(-c2ccc(C(F)(F)F)cc2)nc2c1CSCC2 | > 100 | > 100 | > 100 | > 100 | > 84.5 | > 100 | > 100 | > 100 | > 100 | > 100 | 13.7 | > 100 | > 100 | > 100 | 19.6 | 65.8 | 17.1 | 46.3 | > 100 | > 100
4 | COc1ccc(/C=C2\N=C3SC=C(N)N3C2=O)cc1 | 0.314 | 1.5 | 1.34 | 6.07 | 1.2 | 2.71 | 1.12 | 4.6 | 1.02 | 4.85 | 1.32 | 7.01 | 1.13 | 4.23 | 0.303 | 1.58 | 0.224 | 1.93 | 3.08 | 15.6
5 | Cn1cnc([N+](=O)[O-])c1Sc1ncnc2c1ncn2C1OC(CO)C(O)C1O (centres undefined) | 9.62 | > 100 | 32.6 | > 100 | 1.87 | > 100 | 22.6 | > 100 | 5.2 | > 100 | 3.53 | > 100 | 15 | 61 | 24.6 | > 100 | 31.3 | > 100 | 6.34 | > 100
6 | O=C1/C(=C/c2cccs2)CCC/C1=C\c1cccs1 | 40.1 | > 100 | > 100 | > 100 | 46.6 | > 100 | > 100 | > 100 | > 94.9 | > 100 | 55.8 | > 100 | > 100 | > 100 | 26.4 | > 100 | 10.6 | 57.8 | > 100 | > 100
7 | C[Se]C(=O)CC1=C2C=C(F)C=CC2/C(=C\c2ccc(S(C)=O)cc2)C1C (centres undefined) | 0.404 | 2.92 | 0.273 | 3.25 | 0.0187 | 1.16 | 0.416 | 2.41 | 1.17 | > 100 | 0.0253 | 0.478 | 1.25 | 6.36 | 0.0289 | 0.8 | 0.165 | 0.417 | 0.0853 | 3.25
8 | Cn1c(O)c(C(=O)Nc2ccc([N+](=O)[O-])cc2)c(=O)n(C)c1=S |  | > 100 |  | 31.3 |  | 11.5 |  | > 100 |  | > 100 |  | 10.6 |  | 19.9 |  | 2.8 |  | 4.7 |  | 7.05
9 | CC1(C)OCN(c2ccc(Cl)cc2)Cn2c1nc1ccccc12 |  | > 100 |  | > 100 |  | > 100 |  | 47.8 |  | 98.6 |  |  |  | 12 |  | > 100 |  | > 100 |  | > 54.1
10 | COc1ccc2c(c1)OC13Oc4cc(OC)ccc4C=C1CCCC3=C2 | > 100 | > 100 | > 100 | > 100 | > 100 | > 100 | > 100 | > 100 | 4.89 | > 100 |  |  | > 100 | > 100 | > 100 | > 100 | 4.46 | > 100 | 18.7 | > 100

Reference: PubChem BioAssay (NCI)
